Experimental findings from article PMC9821843, “Powerful Potential of Polyfluoroalkyl-Containing 4-Arylhydrazinylidenepyrazol-3-ones for Pharmaceuticals” (Molecules, 2022) are described below.

Values after ≈ are worked out from the molar mass of the structure shown. Read-outs that look alike come from different tables or passages of the source.

Series [1] relates to Epidermophyton floccosum RCPF F 1659/17. Description: Antifungal susceptibility testing, E. floccosum. Conditions: Epidermophyton floccosum, RCPFF1659/17, read-out: MIC for fungi strains inhibition, E. floccosum.
Description: (§2) The solvent was DMSO. […] In each test, a growth control and a sterility control were used.
Series [2] has as its system Microsporum canis RCPF F 1643/1585. Put plainly: Antifungal susceptibility testing, M. canis. The following applies: Microsporum canis, RCPFF1643/1585, read-out: MIC for fungi strains inhibition, M. canis.
Description: as §2
For series [3], the system named is Trichophyton rubrum RCPF F 1408. Description: Antifungal susceptibility testing, T. rubrum. The following applies: Trichophyton rubrum, RCPFF1408, read-out: MIC for fungi strains inhibition, T. rubrum.
Description: as §2
Series [4] has as its target T1, equine serum butyrylcholinesterase (BChE, EC 3.1.1.8) (Equus caballus, UniProt P81908).
T1 construct: equine serum butyrylcholinesterase (BChE, EC 3.1.1.8); purchased Sigma-Aldrich (Saint Louis, MO, USA); host or cells: equine serum
Put plainly: Inhibition of equine serum butyrylcholinesterase (Ellman assay). The format is biochemical. Conditions: read-out: Inhibition % at 20 µM, Equine BChE. The text has this: (§1) The following enzymes were purchased from Sigma-Aldrich (Saint Louis, MO, USA): porcine liver carboxylesterase (CES, EC 3.1.1.1), human erythrocyte acetylcholinesterase (AChE, EC 3.1.1.7) and equine serum butyrylcholinesterase (BChE, EC 3.1.1.8). Substrates for CES, AChE and BChE were 4-nitrophenyl acetate (4-NPA), acetylthiocholine iodide (ATCh) and butyrylthiocholine iodide (BTCh), respectively, and the colorimetric reagent for the AChE and BChE assays was 5,5’-dithio-bis-(2-nitrobenzoic acid) (DTNB) (Sigma-Aldrich). All the kinetic experiments were performed under standard conditions, according to the protocol of IPAC RAS for a reversible inhibitors study.
Final concentrations of reactants were 0.33 mM DTNB, 0.02 unit/mL of AChE or BChE and 1 mM of substrate (ATCh or BTCh, respectively). Reagent blanks consisted of reaction mixtures without enzyme to assess non-enzymatic hydrolysis of substrates.
Test compounds were dissolved in DMSO. Reaction mixtures contained a final DMSO concentration of 2% (v/v). […] Substrate was then added and residual enzyme activity relative to an inhibitor-free control was measured using a Bio-Rad Benchmark Plus microplate reader (Marnes-la-Coquette, France).
Measurements were performed in a Bio-Rad Benchmark Plus microplate reader. Each experiment was performed in triplicate. Plots, linear regressions and values of IC50, were determined using Origin 6.1 for Windows, OriginLab (Northampton, MA, USA).

The target of series [5] is T2, human erythrocyte acetylcholinesterase (AChE, EC 3.1.1.7) (Homo sapiens, UniProt P22303).
T2 construct: human erythrocyte acetylcholinesterase (AChE, EC 3.1.1.7); purchased Sigma-Aldrich (Saint Louis, MO, USA); host or cells: human erythrocytes
Description: Inhibition of human erythrocyte acetylcholinesterase (Ellman assay). The format is biochemical. The following applies: read-out: Inhibition % at 20 µM, Human AChE.
Text: as §1
Reagent blanks consisted of reaction mixtures without enzyme to assess non-enzymatic hydrolysis of substrates.
Test compounds were dissolved in DMSO. Reaction mixtures contained a final DMSO concentration of 2% (v/v). […] Measurements were performed in a Bio-Rad Benchmark Plus microplate reader. Each experiment was performed in triplicate. Plots, linear regressions and values of IC50, were determined using Origin 6.1 for Windows, OriginLab (Northampton, MA, USA).

Series [6] is described as follows: ABTS radical cation scavenging activity assay. The following applies: mean ± SEM; n.a. = inactive. The arrangement: key to ABTS•+-scavenging activity, TEAC (trolox equivalent antioxidant capacity): TEAC = ratio of compound slope to Trolox slope vs ABTS absorbance. The method, then:
Radical scavenging activity of the compounds was evaluated by the ABTS radical cation (ABTS^•+) scavenging assay by the ability of the compounds to decolorize the ABTS^•+ solution [112] with some modifications. Trolox was used as a reference standard. Edaravone was used as the comparison compound. All tested compounds and standards were dissolved in DMSO. ABTS (2,2′-azinobis-(3-ethylbenzothiazoline-6-sulfonic acid)) was purchased from Tokyo Chemical Industry Co. Ltd. (Tokyo, Japan). Potassium persulfate (di-potassium peroxdisulfate), Trolox® (6-hydroxy-2,5,7,8-tetramethychroman-2-carboxylic acid), ascorbic acid, DMSO and HPLC-grade ethanol were obtained from Sigma-Aldrich Chemical Co. Aqueous solutions were prepared using deionized water.
The solution of ABTS^•+ was produced by mixing 7 mM ABTS aqueous solution with 2.45 mM potassium persulfate aqueous solution in equal quantities and allowing them to react for 12–16 h at room temperature in the dark. Radical scavenging capacity of the compounds was analyzed by mixing 10 μL of compound with 240 μL of ABTS^•+ working solution in ethanol (100 μM final concentration), and after 1 h of incubation at 30 °C the decrease in absorbance was measured spectrophotometrically at 734 nm using a Bio-Rad xMark microplate UV/VIS spectrophotometer (Bio-Rad, Hercules, CA, USA). The compounds were tested in the concentration range of 5 × 10^–7–4 × 10^–4 M. Ethanol blanks were run in each assay. Values were obtained from five replicates of each sample and three independent experiments.
Antioxidant activity was calculated as Trolox equivalent antioxidant capacity (TEAC values), consisting of the ratio between the slopes obtained from the linear correlation for concentrations of the tested compounds and Trolox with absorbance of ABTS radical. For the test compounds, which reduce ABTS^•+ absorbance by more than 60% at 100 µM, we also determined IC50 values as 50% reduction of the ABTS radical. The calculations were carried out using Origin 6.1 for Windows. Results were presented as mean ± SEM, calculated using GraphPad Prism version 6.05 for Windows, GraphPad Software.

Series [7] in a line: Acute toxicity evaluation in mice (ip). The following applies: CD-1, mouse, in vivo, 300 mg/kg. The method, then:
The toxicity evaluation was performed on CD-1 mice. […] The tested compounds in 1% starch mucilage were injected intraperitoneally into three mice. Then, animals were observed during 14 days, the number of deaths was counted and % of viability calculated.

For series [8], the system named is Sprague-Dawley (SD) rats. Description: Hot plate test (analgesic activity). The format is in vivo. The following applies: ip, dose 15 mg/kg; for change in vivo at 15 mg/kg: Rattus norvegicus, hot plate test, rats, n.a. = inactive (p > 0.05). The method, then: The hot plate test was conducted according to established guidelines on Sprague-Dawley (SD) rats (3 male and 3 female rodents per group). The compounds were intraperitoneally administered in the form of suspensions in 1% starch mucilage. Negative control group animals received vehicle only (1% starch mucilage). Diclofenac sodium (Hemofarm, Vršac, Serbia, 10 mg/kg in 1% starch mucilage solution) or metamizole sodium (PAO Biosynthesis, Sun Pharma, Penza, Russia, 15 mg/kg in 1% starch mucilage solution) were used as reference drugs. One and two hours after the injection, rats were placed on an electrically heated to 50 °C plate (Hot plate 60,200 series, TSE-systems, Bad Homburg, Germany) in a Plexiglas cylindrical restrainer (19 cm diameter × 30 cm). The nociceptive response time was measured by observing the appearance of rats’ movements (e.g., jumping, hind paw licking or shaking). Maximal cutoff time was set as 30 s regardless of the response in order to preclude skin damage.
Differences between the values of the latency period for the treated (experimental) and control groups of animals were considered significant at p ≤ 0.05.

Series [9] relates to Neisseria gonorrhoeae ATCC 49226/NCTC 12700. Description: Antibacterial activity against Neisseria gonorrhoeae. The format is cell-based. Conditions: read-out: MIC against Neisseria gonorrhoeae. The method, then: Antibacterial activity testing was done on the growth medium Difco GC medium base (Becton Dickinson, Franklin Lakes, NJ, USA) supplemented with 1% IsoVitaleX. Dilutions of chemical compounds were carried out in the range of 250–0.12 μg/mL in 24 well sterile plates (Sarstedt, Germany). Daily cultures of control bacterial strains were identified on a VITEK MS analyzer (BioMérieux, Marcy-l’Étoile, France) by MALDI-TOF mass spectrometry. The inoculation dose of N. gonorrhoeae inoculum was 10^5 CFU/mL.

The subject of series [10] is Candida albicans RCPF Y 401/NCTC 885/653. Put plainly: Antifungal susceptibility testing, C. albicans. Conditions: NCTC885, read-out: MIC for fungi strains inhibition, C. albicans.
Description: as §2
The nature of series [11]: Oxygen radical absorbance capacity (ORAC-FL) assay. Conditions: n.a. = inactive; i.t.s. = interferes with test system. From the text: We evaluated the primary antioxidant activity of synthesized 4-AHPs 5–9 in comparison with their non-fluorinated analogues 9a,b using three standard tests: ABTS, FRAP (ferric reducing antioxidant power) and ORAC (oxygen radical absorbance capacity) assays. The ABTS assay evaluates the binding of a model ABTS radical cation (ABTS^•+), which is realized by the mechanism of single electron transfer (SET) and/or hydrogen atom transfer (HAT). The FRAP assay measures the ability of compounds to reduce the ferric 2,4,6-tripyridyl-s-triazine complex [Fe(TPTZ)2]^3+ to [Fe(TPTZ)2]^2+, which occurs exclusively by the SET mechanism. The ORAC-FL assay measures the oxidative degradation of the fluorescent molecule (FL – fluorescein) after being mixed with a free peroxyl radical generator such as 2,2′-azobis-(2-methylpropionamidine) dihydrochloride (AAPH) in the presence of antioxidant (tested compound). The ORAC-FL test describes the antioxidants’ ability to yield the hydrogen atom and, consequently, it is a HAT-based assay. Trolox was used in all tests as a reference antioxidant: the antioxidant activity of the test compounds was referred to the activity of Trolox. The well-known antioxidant Edaravone was also used for comparison.
The ORAC assay was performed according to the known method, with minor variations and described by us recently.

Where [12] appears, read: 1 h, read-out: Latent Period Prolongation, % 1 h.
[13] abbreviates: 2 h, read-out: Latent Period Prolongation, % 2 h.

T1 sequence (P81908 whole entry): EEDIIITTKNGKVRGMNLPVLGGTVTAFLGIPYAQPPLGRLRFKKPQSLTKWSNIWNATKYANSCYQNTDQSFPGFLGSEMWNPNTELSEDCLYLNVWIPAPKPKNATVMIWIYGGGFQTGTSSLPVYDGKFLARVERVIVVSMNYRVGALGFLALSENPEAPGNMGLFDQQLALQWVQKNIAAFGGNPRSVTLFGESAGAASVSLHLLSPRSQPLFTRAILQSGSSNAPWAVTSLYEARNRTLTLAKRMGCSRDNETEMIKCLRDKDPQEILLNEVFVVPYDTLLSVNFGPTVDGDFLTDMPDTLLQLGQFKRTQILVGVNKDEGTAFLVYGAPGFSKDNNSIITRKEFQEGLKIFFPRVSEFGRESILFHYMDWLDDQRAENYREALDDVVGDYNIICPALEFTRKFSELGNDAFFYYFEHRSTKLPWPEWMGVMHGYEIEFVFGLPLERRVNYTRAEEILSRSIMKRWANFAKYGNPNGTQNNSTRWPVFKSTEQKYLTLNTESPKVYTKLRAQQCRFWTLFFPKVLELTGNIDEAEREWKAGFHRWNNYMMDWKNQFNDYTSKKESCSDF
T2 sequence (P22303 32-617 isoform P22303-2 limits assumed): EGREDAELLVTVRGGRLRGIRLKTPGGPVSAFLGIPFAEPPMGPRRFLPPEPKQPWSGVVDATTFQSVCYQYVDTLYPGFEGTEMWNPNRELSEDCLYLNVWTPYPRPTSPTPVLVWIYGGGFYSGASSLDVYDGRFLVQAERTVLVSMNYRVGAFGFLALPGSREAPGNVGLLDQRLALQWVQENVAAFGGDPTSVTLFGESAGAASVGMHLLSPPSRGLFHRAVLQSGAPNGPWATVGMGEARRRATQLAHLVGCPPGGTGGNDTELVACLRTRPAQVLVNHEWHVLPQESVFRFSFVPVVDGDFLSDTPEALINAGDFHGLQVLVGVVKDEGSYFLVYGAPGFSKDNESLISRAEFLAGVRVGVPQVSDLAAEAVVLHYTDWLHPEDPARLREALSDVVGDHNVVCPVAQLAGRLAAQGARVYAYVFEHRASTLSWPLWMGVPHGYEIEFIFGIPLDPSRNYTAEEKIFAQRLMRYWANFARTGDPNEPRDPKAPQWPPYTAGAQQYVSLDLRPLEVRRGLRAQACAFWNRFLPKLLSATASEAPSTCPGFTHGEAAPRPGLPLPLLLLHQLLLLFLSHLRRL

In the case of `O=C1/C(=N\Nc2ccc(F)cc2)C(C(F)(F)F)=NN1c1ccccc1` [5h, (4Z)-4-[2-(4-Fluorophenyl)hydrazinylidene]-2-phenyl-5-(trifluoromethyl)-2,4-dihydro-3H-pyrazol-3-one], the MIC in series [1] was more than 200 µg/mL; in series [2], more than 200 µg/mL; in [3], more than 200 µg/mL; in [9], 125 µg/mL (≈ 357 µM); in [10], more than 200 µg/mL. Moreover, the values for the inhibition at 20 µM in [4] and in series [5] were 3.2 ± 0.6% and 7 ± 1.2%, respectively. Further, the “ABTS•+-scavenging activity, TEAC (trolox equivalent antioxidant capacity)” value in series [6] is on record as 0.05 ± 0.004. This compound also gave a survival at 14 days in series [7] of 100%. Moreover, the change in vivo at 15 mg/kg came to 66% in series [8] (setting [12]) and 67% in series [8] (setting [13]).
As to `CCOC(=O)c1ccc(N/N=C2\C(=O)N(c3ccccc3)N=C2C(F)(F)F)cc1` [5l, (4Z)-4-[2-(4-Ethoxycarbonyl)hydrazinylidene]-2-phenyl-5-(trifluoromethyl)-2,4-dihydro-3H-pyrazol-3-one], the figures for the inhibition at 20 µM in series [4] and in series [5] were 3.2 ± 0.8% and 16.7 ± 1.5%, respectively. The compound further returned a survival at 14 days in [7] of 100%. Further, the values for the change in vivo at 15 mg/kg in series [8] (setting [12]) and in series [8] (setting [13]) were 68.1% and 107%, respectively. The MIC in series [9] came out at 31.2 µg/mL (≈ 77.2 µM). For the same compound, in series [11], the “ORAC-FL (TE, antioxidant activity in Trolox equivalents)” value is “i.t.s”.
Turning to `O=C1/C(=N\Nc2ccccc2Cl)C(C(F)(F)C(F)(F)F)=NN1c1ccccc1` [6c, (4Z)-4-[2-(2-Chlorophenyl)hydrazinylidene]-5-(pentafluoroethyl)-2-phenyl-2,4-dihydro-3H-pyrazol-3-one], the MIC was more than 200 µg/mL in [1]; more than 200 µg/mL in [2]; 200 µg/mL (≈ 480 µM) in series [3]; more than 250 µg/mL in series [9]; more than 200 µg/mL in series [10]. The values for the inhibition at 20 µM in series [4] and in series [5] were 6.5 ± 1% and 3.3 ± 0.6%, respectively. The compound also came in with a survival at 14 days in [7] of 100%. Moreover, the change in vivo at 15 mg/kg worked out at 75% in series [8] (setting [12]) and 51% in series [8] (setting [13]).
With `O=C1/C(=N\Nc2c(Cl)cccc2Cl)C(C(F)(F)C(F)(F)F)=NN1c1ccccc1` [6e, (4Z)-4-[2-(2,6-Dichlorophenyl)hydrazinylidene]-5-(pentafluoroethyl)-2-phenyl-2,4-dihydro-3H-pyrazol-3-one], the MIC in series [1] is 200 µg/mL (≈ 443 µM); in series [2], more than 200 µg/mL; in series [3], more than 200 µg/mL; in series [9], 62.5 µg/mL (≈ 139 µM); in series [10], more than 200 µg/mL. Further, the inhibition at 20 µM in series [4] worked out at 6.2 ± 1.2%; in series [5], 6 ± 1%. In addition, the survival at 14 days in series [7] was determined as 100%. The “analgesic activity in the hot plate test” value in [8] (SD rats, 1 and 2 h) is “inactive”.
As for `CCOC(=O)c1ccc(N/N=C2\C(=O)N(c3ccccc3)N=C2C(F)(F)C(F)(F)F)cc1` [6g, (4Z)-4-[2-(4-Ethoxycarbonylphenyl)hydrazinylidene]-5-(pentafluoroethyl)-2-phenyl-2,4-dihydro-3H-pyrazol-3-one], the MIC is more than 200 µg/mL in [1]; more than 200 µg/mL in series [2]; more than 200 µg/mL in series [3]; 15.6 µg/mL (≈ 34.3 µM) in [9]; more than 200 µg/mL in [10]. In addition, the inhibition at 20 µM in series [4] is 4.2 ± 0.8%; in series [5], 6.2 ± 0.9%. Besides, the survival at 14 days in series [7] is 100%. Moreover, the change in vivo at 15 mg/kg amounted to 67% in series [8] (setting [12]) and 73% in [8] (setting [13]).
